According to PMC9909315, “SY-707, an ALK/FAK/IGF1R inhibitor, suppresses growth and metastasis of breast cancer cells” (Acta Biochimica et Biophysica Sinica, 2022):

What was measured:
IGF1R = IGF1R (Homo sapiens, UniProt P08069); assay: HTRF kinase enzyme assay; format: biochemical; details: ATP at Km
Description: (§1) Homogeneous time-resolved fluorescence (HTRF) assay was performed to analyze kinase enzyme activity and compound potency using HTRF ® KinEASE ^TM-TK kit (Cisbio Bioassays, Shanghai, China). Compound SY-707 was serially diluted by 3 folds from 1 mM stock solution in DMSO, and 4 μL of the diluted solution of the compounds was added to 96 μL of reaction buffer (50 mM HEPES, pH 7.0, 0.1 mM Na 3VO 4, 0.01% BAS, 5 mM MgCl 2, 1 mM DTT), then 2.5 μL of 4× compound solution and 5 μL of 2× kinases solution were added to a 384-well plate (OptiPlate-384; PerkinElmer, Wellesley, USA ). The resulted solutions were briefly mixed, centrifuged and incubated for 5 min. Finally, 2.5 μL of 4× ATP/TK peptide (ATP at K m for each kinase) solution was added to the reaction system to initiate the reaction. The enzymatic reaction was carried out for 60-120 min at 23°C, then terminated by addition of 5 μL of detection solution containing TK antibody-cryptate and 5 μL of Streptravidin-XL-665. The mixture was incubated for additional 1 h at 23°C. The fluorescent signals were measured with an EnVision multilabel plate reader (PerkinElmer). IC 50 values of the compounds were calculated using the GraFit software (Version 6.0) and presented as the mean of three independent experiments performed in duplicate.

FES = FES (Homo sapiens, UniProt P07332); assay: HTRF kinase enzyme assay; format: biochemical; details: ATP at Km
FES, sequence (P07332 whole entry): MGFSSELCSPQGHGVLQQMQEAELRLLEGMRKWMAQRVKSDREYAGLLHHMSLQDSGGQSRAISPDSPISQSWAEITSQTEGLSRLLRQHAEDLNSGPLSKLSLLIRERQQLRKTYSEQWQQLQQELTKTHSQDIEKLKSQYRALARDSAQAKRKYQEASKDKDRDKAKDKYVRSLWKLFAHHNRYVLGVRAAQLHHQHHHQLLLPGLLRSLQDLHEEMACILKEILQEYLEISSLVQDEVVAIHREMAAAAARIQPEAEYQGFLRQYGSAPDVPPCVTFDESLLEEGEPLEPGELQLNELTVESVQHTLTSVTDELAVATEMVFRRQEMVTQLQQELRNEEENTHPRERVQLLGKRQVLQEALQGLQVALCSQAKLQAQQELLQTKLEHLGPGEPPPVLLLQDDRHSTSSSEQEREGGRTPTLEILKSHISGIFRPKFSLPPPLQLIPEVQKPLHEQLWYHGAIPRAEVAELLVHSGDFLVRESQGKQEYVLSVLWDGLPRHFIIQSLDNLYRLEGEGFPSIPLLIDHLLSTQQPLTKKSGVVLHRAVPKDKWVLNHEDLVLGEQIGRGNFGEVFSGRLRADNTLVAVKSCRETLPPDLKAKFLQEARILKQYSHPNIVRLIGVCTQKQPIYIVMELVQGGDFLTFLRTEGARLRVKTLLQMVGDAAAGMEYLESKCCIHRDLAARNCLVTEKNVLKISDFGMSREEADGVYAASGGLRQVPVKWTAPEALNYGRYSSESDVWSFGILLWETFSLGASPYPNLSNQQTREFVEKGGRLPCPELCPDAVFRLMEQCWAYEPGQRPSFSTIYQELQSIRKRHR
Description: as §1

IRK = IRK (Homo sapiens, UniProt P06213); assay: HTRF kinase enzyme assay; format: biochemical; details: ATP at Km
IRK, sequence (P06213 28-1382): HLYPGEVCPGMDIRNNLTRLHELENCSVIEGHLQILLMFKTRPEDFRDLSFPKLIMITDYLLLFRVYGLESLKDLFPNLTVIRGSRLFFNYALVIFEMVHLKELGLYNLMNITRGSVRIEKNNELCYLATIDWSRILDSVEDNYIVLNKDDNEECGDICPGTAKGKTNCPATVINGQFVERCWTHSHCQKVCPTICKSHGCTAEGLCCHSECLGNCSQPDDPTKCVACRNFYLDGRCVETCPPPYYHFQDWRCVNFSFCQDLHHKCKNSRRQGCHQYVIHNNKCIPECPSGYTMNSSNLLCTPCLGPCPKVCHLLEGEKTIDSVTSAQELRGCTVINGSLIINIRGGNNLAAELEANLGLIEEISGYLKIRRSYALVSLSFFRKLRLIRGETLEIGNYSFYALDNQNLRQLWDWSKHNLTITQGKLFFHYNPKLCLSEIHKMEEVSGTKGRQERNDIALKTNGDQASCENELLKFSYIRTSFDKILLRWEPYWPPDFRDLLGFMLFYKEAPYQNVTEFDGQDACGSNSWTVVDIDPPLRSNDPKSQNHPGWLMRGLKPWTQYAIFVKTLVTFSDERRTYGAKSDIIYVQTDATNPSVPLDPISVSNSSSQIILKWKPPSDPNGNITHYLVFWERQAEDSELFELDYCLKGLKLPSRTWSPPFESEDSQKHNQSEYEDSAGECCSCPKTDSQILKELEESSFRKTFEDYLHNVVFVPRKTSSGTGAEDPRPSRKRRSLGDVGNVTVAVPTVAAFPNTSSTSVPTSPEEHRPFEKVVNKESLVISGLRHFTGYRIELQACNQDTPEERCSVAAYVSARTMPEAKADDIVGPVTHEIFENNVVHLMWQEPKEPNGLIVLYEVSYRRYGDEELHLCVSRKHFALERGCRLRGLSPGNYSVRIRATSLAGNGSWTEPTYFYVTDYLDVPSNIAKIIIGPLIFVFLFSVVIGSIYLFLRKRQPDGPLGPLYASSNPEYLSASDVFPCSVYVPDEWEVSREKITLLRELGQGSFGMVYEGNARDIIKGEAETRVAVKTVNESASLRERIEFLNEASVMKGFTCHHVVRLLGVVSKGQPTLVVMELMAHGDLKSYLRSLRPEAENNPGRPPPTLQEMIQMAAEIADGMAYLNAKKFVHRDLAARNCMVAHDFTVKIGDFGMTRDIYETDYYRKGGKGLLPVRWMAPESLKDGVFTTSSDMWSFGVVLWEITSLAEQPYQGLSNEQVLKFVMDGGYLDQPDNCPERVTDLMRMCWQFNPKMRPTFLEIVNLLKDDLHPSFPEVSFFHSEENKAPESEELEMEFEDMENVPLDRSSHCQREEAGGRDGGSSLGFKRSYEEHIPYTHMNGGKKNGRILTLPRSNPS
Description: as §1

FER = FER (Homo sapiens, UniProt P16591); assay: HTRF kinase enzyme assay; format: biochemical; details: ATP at Km
Description: as §1

ALK = ALK (Homo sapiens, UniProt Q9UM73); assay: HTRF kinase enzyme assay; format: biochemical; details: ATP at Km
ALK, sequence (Q9UM73 19-1620): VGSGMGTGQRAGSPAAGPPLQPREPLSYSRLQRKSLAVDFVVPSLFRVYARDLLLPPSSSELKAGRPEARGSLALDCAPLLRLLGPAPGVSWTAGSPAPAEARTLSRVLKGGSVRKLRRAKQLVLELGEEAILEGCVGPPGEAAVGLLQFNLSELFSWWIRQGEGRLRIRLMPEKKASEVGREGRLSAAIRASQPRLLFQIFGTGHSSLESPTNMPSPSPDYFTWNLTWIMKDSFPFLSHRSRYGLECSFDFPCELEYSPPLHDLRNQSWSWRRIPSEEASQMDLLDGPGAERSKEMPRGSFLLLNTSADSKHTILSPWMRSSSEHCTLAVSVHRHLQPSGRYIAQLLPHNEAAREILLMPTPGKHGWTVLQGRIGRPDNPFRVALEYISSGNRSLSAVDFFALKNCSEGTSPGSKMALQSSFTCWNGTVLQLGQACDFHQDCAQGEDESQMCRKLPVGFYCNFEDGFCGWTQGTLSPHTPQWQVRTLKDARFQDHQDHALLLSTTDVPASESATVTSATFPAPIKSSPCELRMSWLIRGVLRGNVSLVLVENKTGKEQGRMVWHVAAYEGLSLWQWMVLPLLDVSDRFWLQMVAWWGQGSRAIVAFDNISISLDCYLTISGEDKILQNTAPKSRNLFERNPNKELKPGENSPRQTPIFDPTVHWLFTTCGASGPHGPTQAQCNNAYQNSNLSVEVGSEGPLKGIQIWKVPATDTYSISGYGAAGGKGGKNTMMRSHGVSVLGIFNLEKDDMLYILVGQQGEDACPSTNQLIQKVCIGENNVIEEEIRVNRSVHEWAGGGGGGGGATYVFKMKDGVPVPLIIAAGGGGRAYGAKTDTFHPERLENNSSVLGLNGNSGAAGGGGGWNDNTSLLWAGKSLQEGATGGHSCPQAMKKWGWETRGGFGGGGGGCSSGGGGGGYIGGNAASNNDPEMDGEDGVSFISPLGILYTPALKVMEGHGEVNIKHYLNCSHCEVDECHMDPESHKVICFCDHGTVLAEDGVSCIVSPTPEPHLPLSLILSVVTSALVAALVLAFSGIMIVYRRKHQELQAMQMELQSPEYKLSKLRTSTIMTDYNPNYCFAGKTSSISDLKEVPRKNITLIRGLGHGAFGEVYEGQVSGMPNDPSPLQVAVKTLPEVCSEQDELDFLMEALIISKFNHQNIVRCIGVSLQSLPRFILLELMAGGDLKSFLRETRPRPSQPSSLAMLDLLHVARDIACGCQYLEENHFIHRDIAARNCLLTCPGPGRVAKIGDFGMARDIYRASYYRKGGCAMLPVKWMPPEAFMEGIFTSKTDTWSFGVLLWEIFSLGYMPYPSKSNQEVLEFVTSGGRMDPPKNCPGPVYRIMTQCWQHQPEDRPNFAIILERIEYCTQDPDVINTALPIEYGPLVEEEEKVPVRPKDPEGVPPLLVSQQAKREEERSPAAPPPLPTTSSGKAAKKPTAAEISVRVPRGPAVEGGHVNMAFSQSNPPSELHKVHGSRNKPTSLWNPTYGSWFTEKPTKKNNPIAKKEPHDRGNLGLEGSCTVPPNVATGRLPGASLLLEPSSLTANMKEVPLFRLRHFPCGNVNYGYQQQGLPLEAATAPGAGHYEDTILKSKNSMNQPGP
Description: as §1

PYK2 = PYK2 (Homo sapiens, UniProt Q14289); assay: HTRF kinase enzyme assay; format: biochemical; details: ATP at Km
Description: as §1

ACK = ACK (Homo sapiens, UniProt Q07912); assay: HTRF kinase enzyme assay; format: biochemical; details: ATP at Km
ACK, sequence (Q07912 whole entry): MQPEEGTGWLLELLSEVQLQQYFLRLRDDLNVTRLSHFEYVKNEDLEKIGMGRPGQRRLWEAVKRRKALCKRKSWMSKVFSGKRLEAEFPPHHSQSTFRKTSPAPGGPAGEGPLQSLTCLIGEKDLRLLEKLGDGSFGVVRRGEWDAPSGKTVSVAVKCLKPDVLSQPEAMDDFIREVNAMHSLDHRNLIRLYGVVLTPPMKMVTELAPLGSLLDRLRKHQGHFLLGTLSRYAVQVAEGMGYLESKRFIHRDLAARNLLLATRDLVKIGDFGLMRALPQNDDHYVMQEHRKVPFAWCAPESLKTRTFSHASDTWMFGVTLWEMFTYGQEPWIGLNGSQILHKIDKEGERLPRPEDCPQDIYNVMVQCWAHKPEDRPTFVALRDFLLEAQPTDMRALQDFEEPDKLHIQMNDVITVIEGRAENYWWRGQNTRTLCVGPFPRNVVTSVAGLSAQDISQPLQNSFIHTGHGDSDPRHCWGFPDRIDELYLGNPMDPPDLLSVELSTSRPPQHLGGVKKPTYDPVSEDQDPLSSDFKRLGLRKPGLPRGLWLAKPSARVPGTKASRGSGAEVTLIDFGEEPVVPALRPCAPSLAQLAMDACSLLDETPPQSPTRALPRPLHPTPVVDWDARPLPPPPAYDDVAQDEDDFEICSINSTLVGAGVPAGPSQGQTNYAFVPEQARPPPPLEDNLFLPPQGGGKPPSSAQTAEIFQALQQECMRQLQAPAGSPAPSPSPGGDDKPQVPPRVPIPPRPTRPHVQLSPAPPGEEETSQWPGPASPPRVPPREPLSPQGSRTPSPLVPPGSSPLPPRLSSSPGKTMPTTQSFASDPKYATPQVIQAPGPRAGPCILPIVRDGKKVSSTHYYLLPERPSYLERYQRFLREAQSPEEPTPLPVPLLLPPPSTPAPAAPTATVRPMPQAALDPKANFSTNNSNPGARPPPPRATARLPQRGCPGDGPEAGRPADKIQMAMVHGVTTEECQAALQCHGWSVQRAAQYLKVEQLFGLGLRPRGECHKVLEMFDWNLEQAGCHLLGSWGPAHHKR
Description: as §1

LTK = LTK (Homo sapiens, UniProt P29376); assay: HTRF kinase enzyme assay; format: biochemical; details: ATP at Km
Description: as §1

phosphorylation of IGF1R = assay: Western blot of IGF1R phosphorylation in T47D cells after IGF1; format: cell-based; details: 1 h treatment, then 100 ng/mL IGF1 for 10 min, dose-dependent
Description: Equal amounts of cell lysates were loaded onto 10% SDS-PAGE gel and separated by electrophoresis. Separated proteins were then electro-transferred onto polyvinylidene fluoride (PVDF) membranes (Millipore, Bedford, USA). After being blocked with Tris-buffered saline containing 0.1% Tween-20 (TBST) and 5% bovine serum albumin (BSA), the membranes were incubated with primary antibodies at room temperature for 2 hours or at 4°C, then washed with TBST, followed by treatment with horseradish peroxidase (HRP)-conjugated goat anti-rabbit IgG secondary antibody at room temperature for another 1 h. The targeted protein bands were visualized using an enhanced chemiluminescence (ECL) plus system (Thermo Fisher Scientific). […]
Figure4 Inhibitory effects of SY-707 on the phosphorylation of FAK(A,B) Concentration-dependent inhibition of SY-707 on phosphorylation of FAK in T47D (A) and MCF-7 (B) cells. […] Cell lysates were analyzed by western blot analysis using specific antibodies against p-FAK, p-Pyk2, p-AKT and p-ERK respectively. […] Cell lysates were analyzed by western blot analysis using specific antibodies against p-IGF1R, p-STAT3, p-AKT and p-ERK respectively.

MCF-7 cells = assay: Would healing (migration) assay; format: cell-based; details: MCF-7, 24 h, vs control
Description: (§2) Totally, 5×10 ^5 cells were plated into each well of 6-well plates, and cultured to 70%–80% confluence, then the cell monolayer was gently and slowly scratched with a new 1-mL pipette tip across the center of the well. After scratching, the wells were gently washed with PBS twice to remove the detached cells, and replenished with fresh medium containing indicated concentration of compounds. The treated cells were allowed to grow for additional 24 h, and images were capturedunder a microscope. The migration distance were calculated and analyzed to evaluate the effects of compounds.

T47D cells = assay: Would healing (migration) assay; format: cell-based; details: 24 h, vs control
Description: as §2

T47D xenograft = assay: T47D tumor xenograft study; format: in vivo, nude mice
Description: Due to the strong cell growth inhibition potency of SY-707, we firstly evaluate its in vivo anti-cancer activity in T47D xenograft model mice. In this model, mice were orally administered twice a day with vehicle or SY-707 at dose of 100, 50 or 25 mg/kg after tumor size reached 150–300 mm ^3.
Next, we evaluated the combination effects of SY-707 and paclitaxel (an approved drug for breast cancer therapy) in T47D xenograft model. Mice bearing T47D breast cancer were divided randomly into 4 groups: vehicle, SY-707 (100 mg/kg/day), paclitaxel (10 mg/kg/week), and SY-707 plus paclitaxel groups.

Structure (SMILES): COc1cc(N2CCC(N3CCN(C)CC3)CC2)ccc1Nc1nc2c(c(Nc3ccccc3S(=O)(=O)NC(C)C)n1)CCN2 [SY-707, N-isopropyl-2-((2-((2-methoxy-4-(4-(4-methylpiperazin-1-yl)piperidin-1-yl)phenyl)amino)-6,7-dihydro-5H-pyrrolo[2,3-d]pyrimidin-4-yl)amino)benzenesulfonamide]
- IC50 (IGF1R): 10.6 ± 0.58 nM
- IC50 (FES): 81.8 ± 19 nM
- IC50 (IRK): 7.9 ± 0.3 nM
- IC50 (FER): 52.3 ± 2.3 nM
- IC50 (ALK): 2.4 nM
- IC50 (PYK2): 2.4 ± 0.8 nM
- IC50 (ACK): 28.7 ± 3.5 nM
- IC50 (LTK): 1.9 ± 0.18 nM
- phosphorylation of IGF1R (phosphorylation of IGF1R): block the phosphorylation
- migration distance (MCF-7 cells): significantly decreased
- migration distance (T47D cells): significantly decreased
- tumor growth inhibition rate (T47D xenograft; 25 mg/kg orally twice a day, 21 days, P<0.05): 31%
- tumor growth inhibition rate (T47D xenograft; 50 mg/kg orally twice a day, 21 days, P<0.05): 39%
- tumor growth inhibition rate (T47D xenograft; 100 mg/kg orally twice a day, 21 days, P<0.01): 61%
- tumor growth inhibition rate (T47D xenograft; combination study, SY-707 100 mg/kg/day alone, 24 days): 14%
